Where a name gives a salt, the structure may show the parent alone.
System: Acinetobacter baumannii ATCC 17961
Assay: Antimicrobial susceptibility testing: 90% growth inhibitory concentration (IC90) determination
Assay type: cell-based
Settings: ATCC17961, Acinetobacter baumannii ATCC 17961, Iso-Sensitest broth, read-out: ATCC 17961 IC90
How it was run: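 Growth was followed kinetically by OD600 at 20-min intervals for 16 h at 35±2 °C, with ~5×10^5 CFU/ml in Iso-Sensitest broth. Compounds were tested as twofold dilutions (e.g. 50–0.097 μM final). The concentration giving 90% inhibition of log-phase growth was reported.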

SMILES | IC90 [nM]
Cn1c(-c2cn(C3CC3)nc2C(F)(F)F)cnc1C(=O)Nc1ccc(C(=O)N2CCN(C(=O)[C@]3(C)CCCN3)CC2)c(Cl)c1 [Example 258, (S)-N-(3-chloro-4-(4-(2-methylpyrrolidine-2-carbonyl)piperazine-1-carbonyl)phenyl)-5-(1-cyclopropyl-3-(trifluoromethyl)-1H-pyrazol-4-yl)-1-methyl-1H-imidazole-2-carboxamide hydrochloride] | 314
Cn1c(-c2cn(C3C=C(F)C3)nc2C(F)(F)F)cnc1C(=O)Nc1ccc(C(=O)N[C@H]2[C@@H]3CN(C(=O)C4CCNCC4)C[C@@H]32)c(Cl)c1 (stereo partly drawn) [Example 259, N-(3-chloro-4-(((exo)-3-(piperidine-4-carbonyl)-3 azabicyclo[3.1.0]hexan-6-yl)carbamoyl)phenyl)-5-(1-(3-fluorocyclobut-2-en-1-yl)-3-(trifluoromethyl)-1H-pyrazol-4-yl)-1-methyl-1H-imidazole-2-carboxamide formate] | 314
Cn1c(-c2cn(CC3CCC3)nc2C(F)(F)F)cnc1C(=O)Nc1ccc(C(=O)N2CCN(C(=O)N[C@H]3C[C@@H](N)C3)CC2)c(Cl)c1 [Example 260, rac-N-((1s,3s)-3-aminocyclobutyl)-4-(2-chloro-4-(5-(1-(cyclobutylmethyl)-3-(trifluoromethyl)-1H-pyrazol-4-yl)-1-methyl-1H-imidazole-2-carboxamido)benzoyl)piperazine-1-carboxamide hydrochloride] | 314
C#CCn1cc(-c2cnc(C(=O)Nc3ccc(C(=O)N4CCN(C(=O)C5CCNCC5)CC4)c(F)c3)n2C)c(C(F)(F)F)n1 [Example 261, N-(3-fluoro-4-(4-(piperidine-4-carbonyl)piperazine-1-carbonyl)phenyl)-1-methyl-5-(1-(prop-2-yn-1-yl)-3-(trifluoromethyl)-1H-pyrazol-4-yl)-1H-imidazole-2-carboxamide] | 323
Cn1c(-c2cn(C3CC3)nc2C(F)(F)F)cnc1C(=O)Nc1ccc(C(=O)NCCCCCCNC(=O)N[C@H]2C[C@@H](N)C2)c(Cl)c1 [Example 262, N-[4-[6-[(3-aminocyclobutyl)carbamoyl-amino]hexylcarbamoyl]-3-chlorophenyl]-5-[1-cyclopropyl-3-(trifluoromethyl)pyrazol-4-yl]-1-methylimidazole-2-carboxamide;formic acid] | 323
CCn1cc(-c2cnc(C(=O)Nc3ccc(C(=O)N4CCN(C(=O)[C@H]5[C@@H]6CNC[C@@H]65)CC4)c(Br)c3)n2C)c(C(F)(F)F)n1 [Example 263, N-[3-bromo-4-[4-[rac-(1R,5S)-3-azabicyclo[3.1.0]hexane-6-carbonyl]piperazine-1-carbonyl]phenyl]-5-[1-ethyl-3-(trifluoromethyl)pyrazol-4-yl]-1-methylimidazole-2-carboxamide;hydrochloride] | 325
Cn1c(-c2cn(C3CC3(F)F)nc2C(F)(F)F)cnc1C(=O)Nc1ccc(C(=O)N[C@H]2[C@@H]3CN(C(=O)N4CCN(CCCN)CC4)C[C@@H]32)c(Cl)c1 (stereo partly drawn) [Example 264, N-(4-(((1R,5S,6s)-3-(4-(3-aminopropyl)piperazine-1-carbonyl)-3-azabicyclo[3.1.0]hexan-6-yl)carbamoyl)-3-chlorophenyl)-5-(1-(2,2-difluorocyclopropyl)-3-(trifluoromethyl)-1H-pyrazol-4-yl)-1-methyl-1H-imidazole-2-carboxamide] | 325
Cn1c(-c2cn(C3CC3(F)F)nc2C(F)(F)F)cnc1C(=O)Nc1ccc(C(=O)NC2[C@H]3CN(C(=O)N[C@H]4C[C@@H](N)C4)C[C@@H]23)c(Cl)c1 (stereo partly drawn) [Example 265, cis-N-(3-aminocyclobutyl)-6-[[2-chloro-4-[[5-[1-(2,2-difluorocyclopropyl)-3-(trifluoromethyl)pyrazol-4-yl]-1-methylimidazole-2-carbonyl]amino]benzoyl]amino]-3-azabicyclo[3.1.0]hexane-3-carboxamide, formate salt] | 328
Cn1c(-c2cn(C3CC3(F)F)nc2C(F)(F)F)cnc1C(=O)Nc1ccc(C(=O)N2CCN(C(=O)C3CCNCC3)CC2)c(Cl)c1 (stereo not drawn) [Example 267, N-(3-chloro-4-(4-(piperidine-4-carbonyl)piperazine-1-carbonyl)phenyl)-5-(1-(2,2-difluorocyclopropyl)-3-(trifluoromethyl)-1H-pyrazol-4-yl)-1-methyl-1H-imidazole-2-carboxamide formate] | 332
Cn1c(-c2cn(C3CC3(F)F)nc2C(F)(F)F)cnc1C(=O)Nc1ccc(C(=O)N2C3CCC2CNC3)c(Cl)c1 (stereo not drawn) [Example 268, N-(4-(3,8-diazabicyclo[3.2.1]octane-8-carbonyl)-3-chlorophenyl)-5-(1-(2,2-difluorocyclopropyl)-3-(trifluoromethyl)-1H-pyrazol-4-yl)-1-methyl-1H-imidazole-2-carboxamide formate] | 332
Cn1c(-c2cn(CC#N)nc2C(F)(F)F)cnc1C(=O)Nc1ccc(C(=O)N[C@H]2C[C@@H](NC(=O)[C@H]3C[C@H](N)C3)C2)c(Cl)c1 [Example 269, N-[4-[[3-[(3-aminocyclobutanecarbonyl)ami-no]cyclobutyl]carbamoyl]-3-chloro-phenyl]-5-[1-(cyanomethyl)-3-(trifluoromethyl)pyrazol-4-yl]-1-methyl-imidazole-2-carboxamide; formic acid] | 333
Cn1c(-c2cn(C3CC3)nc2C(F)(F)F)cnc1C(=O)Nc1ccc(C(=O)N2CCN(C(=O)C(O)CN)CC2)c(Cl)c1 (stereo not drawn) [Example 270, N-[4-[4-(3-amino-2-hydroxypropanoyl)piperazine-1-carbonyl]-3-chlorophenyl]-5-[1-cyclopropyl-3-(trifluoromethyl)pyrazol-4-yl]-1-methylimidazole-2-carboxamide;hydrochloride] | 333
Cn1c(-c2cn(CC(F)F)nc2C(F)(F)F)cnc1C(=O)Nc1ccc(C(=O)N2CCN(C(=O)N[C@H]3C[C@@H](N)C3)CC2)c(F)c1 [Example 272, rac-N-((1s,3s)-3-aminocyclobutyl)-4-(4-(5-(1-(2,2-difluoroethyl)-3-(trifluoromethyl)-1H-pyrazol-4-yl)-1-methyl-1H-imidazole-2-carboxamido)-2-fluorobenzoyl)piperazine-1-carboxamide] | 335

Results, then the compound that gave them:

IC90 [nM] | SMILES
336 | Cn1c(-c2cn(C3CC3)nc2C(F)(F)F)cnc1C(=O)Nc1ccc(C(=O)N2CCN(C(=O)[C@H]3CCCCN3)CC2)c(Cl)c1 [Example 273, (R)-N-(3-chloro-4-(4-(piperidine-2-carbonyl)piperazine-1-carbonyl)phenyl)-5-(1-cyclopropyl-3-(trifluoromethyl)-1H-pyrazol-4-yl)-1-methyl-1H-imidazole-2-carboxamide hydrochloride]
338 | Cn1c(-c2cn(C3CCCC3)nc2C(F)(F)F)cnc1C(=O)Nc1ccc(C(=O)N2CCN(C(=O)C3CCNCC3)CC2)c(Cl)c1 [Example 274, N-(3-chloro-4-(4-(piperidine-4-carbonyl)piperazine-1-carbonyl)phenyl)-5-(1-cyclopentyl-3-(trifluoromethyl)-1H-pyrazol-4-yl)-1-methyl-1H-imidazole-2-carboxamide hydrochloride]
341 | Cn1c(-c2cn(CC#N)nc2C(F)(F)F)cnc1C(=O)Nc1ccc(C(=O)N[C@H]2C[C@@H](NC(=O)N[C@@H]3CC[C@H](N)C3)C2)c(Cl)c1 [Example 275, N-[4-[[3-[[(1R,3S)-3-aminocyclopentyl]carbamoylami-no]cyclobutyl]carbamoyl]-3-chloro-phenyl]-5-[1-(cyanomethyl)-3-(trifluoromethyl)pyrazol-4-yl]-1-methyl-imidazole-2-carboxamide; formic acid]
343 | Cn1c(-c2cn(CC3CCC3)nc2C(F)(F)F)cnc1C(=O)Nc1ccc(C(=O)N2CCN(C(=O)[C@H]3C[C@H](N)C3)CC2)c(Cl)c1 [Example 276, rac-N-(4-(4-((1r,3r)-3-aminocyclobutane-1-carbonyl)piperazine-1-carbonyl)-3-chlorophenyl)-5-(1-(cyclobutylmethyl)-3-(trifluoromethyl)-1H-pyrazol-4-yl)-1-methyl-1H-imidazole-2-carboxamide hydrochloride]
343 | Cn1c(-c2cn(C3CC3)nc2C(F)(F)F)cnc1C(=O)Nc1ccc(C(=O)N2CCCC(CN)C2)c(Cl)c1 (stereo not drawn) [Example 277, N-[4-[3-(aminomethyl)piperidine-1-carbonyl]-3-chlorophenyl]-5-[1-cyclopropyl-3-(trifluoromethyl)pyrazol-4-yl]-1-methylimidazole-2-carboxamide;hydrochloride]
344 | C[C@H](N)C(=O)N1CCN(C(=O)c2ccc(NC(=O)c3ncc(-c4cn(CC5CCC5)nc4C(F)(F)F)n3C)cc2Cl)CC1 [Example 278, N-(4-(4-(L-alanyl)piperazine-1-carbonyl)-3-chlorophenyl)-5-(1-(cyclobutylmethyl)-3-(trifluoromethyl)-1H-pyrazol-4-yl)-1-methyl-1H-imidazole-2-carboxamide hydrochloride]
348 | Cn1c(-c2cn(CC3CCC3)nc2C(F)(F)F)cnc1C(=O)Nc1ccc(C(=O)N2CCN(C(=O)C3CCN3)CC2)c(Cl)c1 (stereo not drawn) [Example 281, N-(4-(4-(azetidine-2-carbonyl)piperazine-1-carbonyl)-3-chlorophenyl)-5-(1-(cyclobutylmethyl)-3-(trifluoromethyl)-1H-pyrazol-4-yl)-1-methyl-1H-imidazole-2-carboxamide hydrochloride]

Same assay, conditions: Acinetobacter baumannii, ATCC17961, read-out: ATCC 17961 IC90, Acinetobacter baumannii ATCC 17961, Iso-Sensitest broth

SMILES | IC90 [nM]
Cn1c(-c2cn(C3CC3)nc2C(F)(F)F)cnc1C(=O)Nc1ccc(C(=O)N2CCN(C(=O)N[C@@H]3C[C@H](N)C3(C)C)CC2)c(Cl)c1 [Example 266, N-[(1R,3S)-3-amino-2,2-dimethylcyclobutyl]-4-[2-chloro-4-[[5-[1-cyclopropyl-3-(trifluoromethyl)pyrazol-4-yl]-1-methylimidazole-2-carbonyl]amino]benzoyl]pipera-zine-1-carboxamide;formic acid] | 330

Source: patent US11390604B2 (Hoffmann-La Roche Inc., priority 2019, dated 2022)
